Measured values: the supplement of paper PMC11061612

Legend:
[1] = tested on: D-263MG (Glioblastoma); experiment: Bliss excess, mean over the matrix (fraction); higher = more synergy;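 also: after 72 h of two-drug dosing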
Summary of the method: (§1)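 After 24 hours at 37°C and 5% CO2 in 1536-well plates, cells in DMEM/F12 or RPMI plus 10% FBS received two-drug dose matrices for 72 hours. Viability came from CellTiter-Glo 2.0 luminescence and was scaled as inhibition, anchored at 0 by vehicle wells and at 1 by blank wells. Combination Emax is taken as the second-highest inhibition in the matrix, and Bliss excess as the observed combination effect less EA + EB − EA·EB, with EA and EB the single-agent effects.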

[2] = tested on: ACHN (Kidney Carcinoma); experiment: combination Emax (second highest fraction inhibited in the dose matrix, 72 h); higher = more inhibition; extreme values may be limits of the assay
Summary of the method: as §1

[3] = tested on: EW-24 (Ewing's Sarcoma); experiment: as above
Summary of the method: as §1

[4] = tested on: EoL-1-cell (Acute Myeloid Leukemia); experiment: as above
Summary of the method: as §1

[5] = tested on: HGC-27 (Gastric Carcinoma); experiment: as above
Summary of the method: as §1

[6] = tested on: HOP-62 (Lung Adenocarcinoma); experiment: as above
Summary of the method: as §1

[7] = tested on: Hs-766T (Pancreatic Carcinoma); experiment: as above
Summary of the method: as §1

[8] = tested on: KARPAS-299 (T-Cell Non-Hodgkin's Lymphoma); experiment: as above
Summary of the method: as §1

[9] = tested on: KMOE-2 (Acute Myeloid Leukemia); experiment: as above
Summary of the method: as §1

[10] = tested on: KYSE-450 (Esophageal Squamous Cell Carcinoma); experiment: as above
Summary of the method: as §1

[11] = tested on: NB69 (Neuroblastoma); experiment: as above
Summary of the method: as §1

[12] = tested on: NCI-H1915 (Non-Small Cell Lung Carcinoma); experiment: as above
Summary of the method: as §1

[13] = tested on: NCI-H358 (Lung Adenocarcinoma); experiment: as above
Summary of the method: as §1

[14] = tested on: NCI-H727 (Other Solid Carcinomas); experiment: as above
Summary of the method: as §1

[15] = tested on: OE19 (Esophageal Adenocarcinoma); experiment: as above
Summary of the method: as §1

[16] = tested on: OVCAR-4 (Ovarian Carcinoma); experiment: as above
Summary of the method: as §1

[17] = tested on: RF-48 (B-Cell Non-Hodgkin's Lymphoma); experiment: as above
Summary of the method: as §1

[18] = tested on: SCC-15 (Oral Cavity Carcinoma); experiment: as above
Summary of the method: as §1

[19] = tested on: TE-1 (Esophageal Squamous Cell Carcinoma); experiment: as above
Summary of the method: as §1

[20] = tested on: UACC-62 (Melanoma); experiment: as above
Summary of the method: as §1

| Structure (SMILES) | Bliss excess [1] | combination Emax [2] | combination Emax [3] | combination Emax [4] | combination Emax [5] | combination Emax [6] | combination Emax [7] | combination Emax [8] | combination Emax [9] | combination Emax [10] | combination Emax [11] | combination Emax [12] | combination Emax [13] | combination Emax [14] | combination Emax [15] | combination Emax [16] | combination Emax [17] | combination Emax [18] | combination Emax [19] | combination Emax [20] |
| --- | --- | --- | --- | --- | --- | --- | --- | --- | --- | --- | --- | --- | --- | --- | --- | --- | --- | --- | --- | --- |
| CS(=O)(=O)CCNCc1ccc(-c2ccc3ncnc(Nc4ccc(OCc5cccc(F)c5)c(Cl)c4)c3c2)o1 [Lapatinib] + C[C@@H](Oc1cc(-c2cnn(C3CCNCC3)c2)cnc1N)c1c(Cl)ccc(F)c1Cl [Crizotinib] (first compound max 10 µM, 7x7, partner max 10 µM) | -0.0621 | 0.781 | 0.9 | 0.988 | 0.983 | 0.842 | 0.319 | 0.978 | 0.911 | 0.869 | 0.949 | 0.65 | 0.926 | 0.942 | 1 | 0.727 | 0.477 | 0.944 | 0.919 | 0.66 |
| CC(=O)c1c(C)c2cnc(Nc3ccc(N4CCNCC4)cn3)nc2n(C2CCCC2)c1=O [Palbociclib] + CC1(C)CCC(CN2CCN(c3ccc(C(=O)NS(=O)(=O)c4ccc(NCC5CCOCC5)c([N+](=O)[O-])c4)c(Oc4cnc5[nH]ccc5c4)c3)CC2)=C(c2ccc(Cl)cc2)C1 [Venetoclax] (first compound max 10 µM, 7x7, partner max 1 µM) | -0.0043 | 0.597 | 0.432 | 0.994 | 0.628 | 0.251 | 0.149 | 0.495 | 0.215 | 0.126 | 0.762 | 0.466 | 0.337 | 0.232 | 0.257 | 0.0611 | 0.254 | 0.0783 | 0.179 | 0.0969 |
| CC(=O)c1c(C)c2cnc(Nc3ccc(N4CCNCC4)cn3)nc2n(C2CCCC2)c1=O [Palbociclib] + Cc1c2c(nn1C)CSCc1cc(n(C)n1)CSc1cc(c3ccccc3c1)OCCCc1c(C(=O)O)n(C)c3c-2c(Cl)ccc13 [AZD5991] (first compound max 10 µM, 7x7, partner max 1 µM) | -0.0135 | 0.626 | 0.577 | 1 | 0.715 | 0.424 | 0.404 | 0.968 | 0.65 | 0.263 | 0.91 | 0.447 | 0.363 | 0.311 | 0.664 | 0.191 | 0.298 | 0.191 | 0.194 | 0.588 |
| CC(=O)c1c(C)c2cnc(Nc3ccc(N4CCNCC4)cn3)nc2n(C2CCCC2)c1=O [Palbociclib] + Cn1cnc2c(F)c(Nc3ccc(Br)cc3Cl)c(C(=O)NOCCO)cc21 [Selumetinib] (first compound max 10 µM, 7x7, partner max 10 µM) | -0.0077 | 0.606 | 0.318 | 0.952 | 0.617 | 0.471 | 0.465 | 0.594 | 1 | 0.403 | 0.988 | 0.782 | 0.524 | 0.636 | 0.332 | 0.286 | 0.277 | 0.232 | 0.383 | 0.764 |
| COc1cccc(OCCCN)c1-c1cc(Nc2cnc(C#N)cn2)n[nH]1 [Prexasertib] + C=CCn1c(=O)c2cnc(Nc3ccc(N4CCN(C)CC4)cc3)nc2n1-c1cccc(C(C)(C)O)n1 [AZD1775] (first compound max 1 µM, partner max 1 µM) | 0.0378 | 0.96 | 0.7 | 0.998 | 0.991 | 0.627 | 0.694 | 0.978 | 0.992 | 0.999 | 1 | 0.749 | 0.769 | 0.701 | 0.943 | 0.866 | 0.786 | 0.638 | 0.763 | 0.798 |
| COc1cccc(OCCCN)c1-c1cc(Nc2cnc(C#N)cn2)n[nH]1 [Prexasertib] + CCc1c2c(nc3ccc(O)cc13)-c1cc3c(c(=O)n1C2)COC(=O)[C@]3(O)CC [SN-38] (first compound max 1 µM, 7x7, partner max 0.3 µM) | 0.0688 | 0.931 | 0.832 | 0.996 | 0.994 | 0.843 | 0.655 | 0.992 | 0.999 | 0.996 | 1 | 0.89 | 0.897 | 0.696 | 0.956 | 0.9 | 0.804 | 0.802 | 0.902 | 0.817 |
